Where “and” joins values, the source holds several entries; their conditions need not be identical. Identical values can stand only once.
Tested on: metastatic colon cancer patients
Assay: Overall survival of metastatic colon cancer patients treated with 5-FU-based chemotherapy, by gender and EGFR genotype
Format: in vivo, human
Conditions: for RR (95% CI): relative risk
From the text: A total of 318 patients with metastatic colon cancer treated at the University of Southern California/Norris Comprehensive Cancer Center (USC/NCCC) or the Los Angeles County/University of Southern California Medical Center (LAC/USCMC), between 1992 and 2003, were eligible for the present study. This population included only metastatic or recurrent colon cancer patients. All patients in this study signed informed consents and enrolled in protocols designed to study the molecular determinants of colon cancer. These protocols permitted blood collection (USC protocol OS-99-10) and/or tissue collection (USC protocol 0S-00-15).
All patients were entered and followed in an institutional database. Patient information was collected through database review and retrospective chart review when additional patient information was necessary. A large number of the patients (69%) were initially treated at an outside institution until, because of failure to respond to prior treatment, they were referred to USC/NCCC or LAC/USCMC for subsequent treatments. The end point of this study, OS, was determined by calculating the difference between the date of first treatment at USC/NCCC or LAC/USC and the date of last follow-up appointment or date of death from disease.
All 318 patients were enrolled in at least one chemotherapy clinical trial while being treated at this institution (USC/NCCC or LAC/USCMC). All patients were treated with 5-fluorouracil (5-FU)-based chemotherapy regimens, and response to chemotherapy was not investigated as an end point for this study. This is a heavily pretreated cohort with 20 (6%) patients treated with one line of chemotherapy, 19 (6%) patients treated with two different chemotherapy regimens, 183 (58%) patients treated with three chemotherapy regimens, and 96 (30%) patients treated with four or more chemotherapy regimens. […] All 318 patients received treatment with 5-FU, 298 (94%) patients received treatment with 5-FU/irinotecan (CPT-11), and 279 (88%) patients received treatment with 5-FU/oxaliplatin.
The primary end point of this study is OS. The OS was determined by calculating the difference between the date of first treatment at USC/NCCC or LAC/USC and the date of last follow-up appointment or date of death. Patients who were alive at the last follow-up were censored at that time.
The associations between sex and other demographic and clinical characteristics were examined using contingency tables and the Fisher exact test. The dominant code for HER-1 R497K was used for the association with OS, and patients who carried heterozygous (Arg/Lys) and homozygous mutant genotypes (Lys/Lys) were grouped together. EGFR intron 1 (CA)n repeat polymorphism was categorized into two groups: both alleles with <20 (CA)n (SEQ ID NO: 3) and any alleles with ≧20 (CA)n (SEQ ID NO: 4) as described previously (19). The associations of HER-1 R497K and EGFR intron 1 (CA)n repeat polymorphisms with OS were analyzed individually using Kaplan-Meier plots and the log-rank test. The independent effects of two EGFR polymorphisms on OS were examined in multivariable analysis using Cox proportional hazards model. Interactions between sex and EGFR polymorphisms were examined using stratified models and were tested by comparing corresponding likelihood ratio statistics between the baseline and nested Cox proportional hazards models that included the multiplicative product terms (20).

O=c1[nH]cc(F)c(=O)[nH]1 [5-FU, 5-fluorouracil]
Median survival (95% CI) (female, EGFR intron 1 any (CA)n repeats ≧20): 14.1 mo and 14.1 (12.1-18.3) mo | Median survival (95% CI) (female, EGFR intron 1 both (CA)n repeats <20): 17.6 mo and 17.9 mo and 17.6 (13.7-22.7) mo | Median survival (95% CI) (female, HER-1 R497K Arg/Arg, 5-FU-based chemotherapy regimens): 16.0 (13.5-19.2) mo | Median survival (95% CI) (female, HER-1 R497K Lys allele (Arg/Lys or Lys/Lys)): 14.0 (11.2-17.9) mo | Median survival (95% CI) (female, combined: Arg/Arg and (CA)n <20): 15.7 (11.5-41.4) mo | Median survival (95% CI) (female, combined: Arg/Arg and (CA)n ≧20 or Lys and (CA)n <20): 17.3 (14.0-19.2) mo | Median survival (95% CI) (female, combined: Lys and (CA)n ≧20): 12.2 (7.7-16.7) mo | RR (95% CI) (female, Arg/Arg and (CA)n ≧20 or Lys and (CA)n <20 vs Arg/Arg and (CA)n <20 (reference)): 0.93 (0.56-1.54) | RR (95% CI) (female, Lys allele vs Arg/Arg (reference), Cox model): 1.41 (0.94-2.10) | RR (95% CI) (female, Lys and (CA)n ≧20 vs Arg/Arg and (CA)n <20 (reference)): 1.90 (1.10-3.29) | RR (95% CI) (female, any (CA)n ≧20 vs both <20 (reference)): 1.37 (0.93-2.01) | Median survival (95% CI) (male, EGFR intron 1 any (CA)n repeats ≧20): 13.1 mo and 13.1 (10.7-16.0) mo | Median survival (95% CI) (male, EGFR intron 1 both (CA)n repeats <20): 10.3 mo and 10.4 mo and 10.3 (8.3-15.5) mo | Median survival (95% CI) (male, HER-1 R497K Arg/Arg, 5-FU-based chemotherapy regimens): 10.3 (9.0-13.5) mo | Median survival (95% CI) (male, HER-1 R497K Lys allele (Arg/Lys or Lys/Lys)): 13.7 (10.8-19.1) mo | Median survival (95% CI) (male, combined: Arg/Arg and (CA)n <20): 8.9 (7.3-11.4) mo | Median survival (95% CI) (male, combined: Arg/Arg and (CA)n ≧20 or Lys and (CA)n <20): 13.1 (10.3-17.5) mo | Median survival (95% CI) (male, combined: Lys and (CA)n ≧20): 13.6 (10.7-19.5) mo | RR (95% CI) (male, Arg/Arg and (CA)n ≧20 or Lys and (CA)n <20 vs Arg/Arg and (CA)n <20 (reference)): 0.84 (0.57-1.25) | RR (95% CI) (male, Lys allele vs Arg/Arg (reference), Cox model): 0.64 (0.46-0.89) | RR (95% CI) (male, Lys and (CA)n ≧20 vs Arg/Arg and (CA)n <20 (reference)): 0.62 (0.39-0.97) | RR (95% CI) (male, any (CA)n ≧20 vs both <20 (reference)): 0.92 (0.67-1.28)
